Test results taken from ChEMBL document CHEMBL1128273, “Quantitative structure-activity relationships of the inhibition of Pneumocystis carinii dihydrofolate reductase by 4,6-diamino-1,2-dihydro-2,2-dimethyl-1-(X-phenyl)-s-triazines” (J Med Chem, 1995).

target: T1, Dihydrofolate reductase (Homo sapiens, UniProt P00374); assay: Inhibition of human dihydrofolate reductase (DHFR); details: read-out: Log 1/Ki (converted)
T1 sequence (P00374 whole entry): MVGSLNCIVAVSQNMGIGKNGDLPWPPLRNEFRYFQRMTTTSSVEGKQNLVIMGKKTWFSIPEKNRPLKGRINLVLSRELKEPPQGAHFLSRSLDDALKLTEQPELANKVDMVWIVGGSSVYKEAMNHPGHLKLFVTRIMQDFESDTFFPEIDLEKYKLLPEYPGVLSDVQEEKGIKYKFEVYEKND

| Compound | Ki |
| --- | --- |
| CC1(C)N=C(N)N=C(N)N1c1cccc(COc2cccc3ccccc23)c1 | 135 nM |
| CC1(C)N=C(N)N=C(N)N1c1cccc(SCc2ccccc2)c1 | 42.7 nM |

tested on: not listed separately; assay: Selectivity index as the ratio of Ki value towards Human DHFR to that of Pneumocystis carinii DHFR.; details: not given

| Compound | Selectivity index |
| --- | --- |
| CCOc1cc(Cc2cnc(N)nc2N)cc(OCC)c1-n1cccc1 [EPIROPRIM] | 0.53 |
| CC1(C)N=C(N)N=C(N)N1c1cccc(COc2cccc3ccccc23)c1 | 1.38 |
| CC1(C)N=C(N)N=C(N)N1c1cccc(OCC23CC4CC(CC(C4)C2)C3)c1 | 1.66 |
| CC1(C)N=C(N)N=C(N)N1c1cccc(SCc2ccccc2)c1 | 1.18 |

tested on: not listed separately; assay: Partition coefficient (logP); assay type: physicochemical; details: octanol/water

| Compound | logP |
| --- | --- |
| CC1(C)N=C(N)N=C(N)N1c1ccc(CCCCc2ccc(S(=O)(=O)F)cc2Cl)c(Cl)c1 | 2.42 |
| CN(C)C(=O)c1cccc(COc2ccc(N3C(N)=NC(N)=NC3(C)C)cc2Cl)c1 | -1.84 |

target: T2, Dihydrofolate reductase (Pneumocystis carinii, UniProt P16184); details: not given
T2 sequence (P16184 whole entry): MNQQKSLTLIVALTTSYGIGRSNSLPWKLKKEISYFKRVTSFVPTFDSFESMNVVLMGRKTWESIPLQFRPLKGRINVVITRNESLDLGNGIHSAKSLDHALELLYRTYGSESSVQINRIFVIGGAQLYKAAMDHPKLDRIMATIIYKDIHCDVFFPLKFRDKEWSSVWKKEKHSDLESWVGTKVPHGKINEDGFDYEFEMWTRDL

| Compound | Ki |
| --- | --- |
| CCCCCCCCCCCCCCOc1cccc(N2C(N)=NC(N)=NC2(C)C)c1 | 331 nM |
| CCCCCCCCCCCOc1cccc(N2C(N)=NC(N)=NC2(C)C)c1 | 18.6 nM |
| CC1(C)N=C(N)N=C(N)N1c1cccc(COc2cccc(C#N)c2)c1 | 8.32 nM |
| CCc1cccc(OCc2cccc(N3C(N)=NC(N)=NC3(C)C)c2)c1 | 4.17 nM |
| CCOc1cc(Cc2cnc(N)nc2N)cc(OCC)c1-n1cccc1 [EPIROPRIM] | 17.4 nM |
| CC1(C)N=C(N)N=C(N)N1c1cccc(C(O)c2ccccc2)c1 (stereo not drawn) | 1170 nM |
| CC1(C)N=C(N)N=C(N)N1c1cccc(COc2cccc3ccccc23)c1 | 5.37 nM |
| CC1(C)N=C(N)N=C(N)N1c1ccc(C(F)(F)F)cc1 | 132 nM |
| CC1(C)N=C(N)N=C(N)N1c1cccc(OCC23CC4CC(CC(C4)C2)C3)c1 | 17 nM |
| Cc1cccc(OCc2cccc(N3C(N)=NC(N)=NC3(C)C)c2)c1 | 19.5 nM |
| CC1(C)N=C(N)N=C(N)N1c1cccc(OCCOc2cccc(C(F)(F)F)c2)c1 | 22.4 nM |
| CC(C)(C)c1cccc(N2C(N)=NC(N)=NC2(C)C)c1 | 214 nM |
| CCCCCCOc1cccc(N2C(N)=NC(N)=NC2(C)C)c1 | 21.4 nM |
| CC1(C)N=C(N)N=C(N)N1c1cccc(SCc2ccc(Cl)cc2)c1 | 2.63 nM |
| CC1(C)N=C(N)N=C(N)N1c1cccc(COc2cccc(Cl)c2)c1 | 12 nM |
| CC1(C)N=C(N)N=C(N)N1c1cccc(COc2cccc(NC(N)=O)c2)c1 | 4.57 nM |
| CC1(C)N=C(N)N=C(N)N1c1cccc(OCc2ccccc2)c1 | 64.6 nM |
| CC1(C)N=C(N)N=C(N)N1c1cccc([N+](=O)[O-])c1 | 132 nM |
| CC1(C)N=C(N)N=C(N)N1c1cccc(SCc2ccccc2)c1 | 2.82 nM |
| CC1(C)N=C(N)N=C(N)N1c1cccc(COc2cccc(CO)c2)c1 | 25.1 nM |
| CC1(C)N=C(N)N=C(N)N1c1cccc(OCCCCOc2ccccc2)c1 | 38 nM |
| COc1cccc(OCc2cccc(N3C(N)=NC(N)=NC3(C)C)c2)c1 | 7.76 nM |
| CC(C)c1cccc(OCc2cccc(N3C(N)=NC(N)=NC3(C)C)c2)c1 | 4.79 nM |
| CCOC(=O)c1cccc(N2C(N)=NC(N)=NC2(C)C)c1 | 2340 nM |
| CC(=O)Nc1cccc(OCc2cccc(N3C(N)=NC(N)=NC3(C)C)c2)c1 | 3.24 nM |
| CC1(C)N=C(N)N=C(N)N1c1cccc(CNc2cc(C(N)=O)cc(C(N)=O)c2)c1 | 15.1 nM |
| CC1(C)N=C(N)N=C(N)N1c1cccc(COc2cccc(-c3ccccc3)c2)c1 | 4.47 nM |

Other lines, results leading:

| Ki | Compound |
| --- | --- |
| 6310 nM | CCOc1cccc(N2C(N)=NC(N)=NC2(C)C)c1 |
| 6.31 nM | CCCCCCCCc1ccc(N2C(N)=NC(N)=NC2(C)C)cc1 |
| 2510 nM | CC1(C)N=C(N)N=C(N)N1c1ccc(O)cc1 |
| 631 nM | CCCCOc1ccc(N2C(N)=NC(N)=NC2(C)C)cc1 |
| 6.76 nM | CCCCCCCCCOc1cccc(N2C(N)=NC(N)=NC2(C)C)c1 |
| 257 nM | CCCCCOc1ccc(N2C(N)=NC(N)=NC2(C)C)cc1 |
| 15.8 nM | CCCCCCCCCCc1ccc(N2C(N)=NC(N)=NC2(C)C)cc1 |
| 166 nM | Cc1ccc(N2C(N)=NC(N)=NC2(C)C)cc1 |
| 100 nM | CCCCCCOc1ccc(N2C(N)=NC(N)=NC2(C)C)cc1 |
| 6.31 nM | CCCCCCCc1ccc(N2C(N)=NC(N)=NC2(C)C)cc1 |
| 17 nM | CCCCCc1ccc(OCc2cccc(N3C(N)=NC(N)=NC3(C)C)c2)cc1 |
| 7.94 nM | CCCCCCc1ccc(N2C(N)=NC(N)=NC2(C)C)cc1 |
| 251 nM | CSc1ccc(N2C(N)=NC(N)=NC2(C)C)cc1 |
